Tested on: Rhinovirus infection
Assay: Treatment of a rhinovirus infection (common cold) in a patient
Assay type: in vivo, human
Conditions: 50 mg orally in a water solution, after 15 minutes
Experimental: A patient with a common katarrhalic infection (common cold) was treated orally with 50 mg of (2RS,4R)-2-[3-Hydroxy-5-(hydroxymethyl)-2-methyl-4-pyridinyl]-4-thiazolidine carboxylic acid in a water solution. After 15 minutes the disease symptoms disappeared.

Compound: Cc1ncc(CO)c(C2N[C@H](C(=O)O)CS2)c1O (mixture of isomers) [(2RS,4R)-2-[3-Hydroxy-5-(hydroxymethyl)-2-methyl-4-pyridinyl]-4-thiazolidine carboxylic acid]
- disease symptoms of common katarrhalic infection (common cold): disappeared

Reference: US6369042B1, “Antioxidative vitamin B6 analogs” (priority 1999, dated 2002)
